{"source": "patent US5817756A", "about": "“Pseudo- and non-peptide bradykinin receptor antagonists” (Scios Inc., priority 1995, dated 1998)", "key": {"human B2 receptor": {"target": "T1, human B2 receptor (Homo sapiens, UniProt P30411)", "T1 construct": "The HindIII/XbaI fragment of one full-length clone, 126A, was inserted into pcDNAI neo vector; expressed in transfected cells", "T1 sequence (P30411 1-391)": "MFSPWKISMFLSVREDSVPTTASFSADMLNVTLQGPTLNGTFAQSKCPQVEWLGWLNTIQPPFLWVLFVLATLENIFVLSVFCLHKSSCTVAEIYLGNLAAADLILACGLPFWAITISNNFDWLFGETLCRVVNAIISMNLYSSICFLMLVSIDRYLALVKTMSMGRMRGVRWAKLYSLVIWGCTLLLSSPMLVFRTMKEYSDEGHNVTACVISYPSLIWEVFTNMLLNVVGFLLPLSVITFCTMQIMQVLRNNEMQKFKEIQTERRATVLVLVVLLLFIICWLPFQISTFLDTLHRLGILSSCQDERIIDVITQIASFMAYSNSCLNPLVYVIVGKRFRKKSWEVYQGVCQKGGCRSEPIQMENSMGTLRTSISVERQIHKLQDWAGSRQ", "test": "Whole cell binding assay, 3H-bradykinin", "conditions": "Table 2, whole cells, read-out: Radioligand Binding, Ki Whole Cell 3HBK", "procedure": "Binding to confluent monolayers of transfected cells expressing the human B2 receptor (7,000 fmol/receptor/mg) grown in 24-well plates was measured by incubating cells in 1 ml cell binding buffer (PBS/Ca/Mg, 1% BSA, 0.14 mg/ml bacitracin) containing 10^-10 M ^3 H-bradykinin and various concentrations of unlabeled analogs for 4 to 10 hours at 4° C. Cells were washed three times with cell binding buffer and lysed in 0.1N NaOH. An aliquot of the lysate was counted to measure radioactivity bound."}, "[1]": {"target": "T2, human bradykinin B2 receptor (Homo sapiens, UniProt P30411)", "T2 construct": "The HindIII/XbaI fragment of one full-length clone, 126A, was inserted into pcDNAI neo vector; expressed in transfected cells", "T2 sequence (P30411 1-391)": "T1 sequence (P30411 1-391)", "test": "Radioligand binding, H2O.2 cell membranes, 3H-bradykinin", "conditions": "Table 2, read-out: Radioligand Binding, Ki Human 3HBK", "procedure": "(§1) A human bradykinin B2 receptor was expressed in CHO/K cells. Briefly, approximately 2×10^6 plaques from a human uterus λgt10 cDNA library (Clontech Laboratories; Palo Alto, Calif.) were screened using a PCR fragment containing the coding region of the rat B2 receptor. This probe was generated by random-primed synthesis in the presence of α[^32 P]dATP. Duplicate filters were hybridized overnight at 42° C. in 1M NaCl, 50 mM Tris pH 7.5, 5× Denhardt's, 200 μg/ml salmon sperm DNA, 1% SDS, and 20% formamide. The filters were washed at 65° C. in 1× SSC and 1% SDS. Coincident positively hybridizing plaques were purified and rescreened with the same probe and stringency conditions. EcoRI fragments of positive clones were inserted into Bluescript/KS II+vector (Stratagene; La Jolla, Calif.) for sequence determination.\n(§2) The nucleotide sequence of the cloned human B2 receptors was determined using double-stranded DNA and the dideoxy chain termination method. Commercially available T3 and T7 oligonucleotides (USB; Cleveland, Ohio) and synthetic 21-mer oligonucleotides (DNA/RNA Synthesizer; applied Biosystems Inc.; Palo Alto, Calif.) from both the known rat sequence and the determined human sequence were used to identify the nucleotide sequence from the 5' untranslated end to the BglII site in the 3' untranslated end of the clone.\n(§3) CHO/K cells were plated in 2 ml of growth medium (Ham's F12 with 10% FBS) per 6 well plate and incubated at 37° C., 5% CO2 until they were 60% confluent. For each well, 4, 12, and 16 μg of DNA was diluted in 100 μl Opti-MEM I reduced serum medium (Gibco/BRL; Gaithersburg, Md.). 12 μl of TransfectASE reagent (Gibco/BRL) was diluted in a separate aliquot of 100 μl Opti-MEM I. The DNA and TransfecASE solutions were combined, mixed gently, and incubated at 25° C. for 15 minutes. This solution was then diluted to 1 ml with Opti-MEM I. Each well was washed twice with Opti-MEM I and 1 ml of the DNA/TransfectAse complex was added to each well. After a 5 hour incubation at 37° C. and 5% CO2, 1 ml of Ham's F12 with 20% FBS was added to each well and cells were incubated overnight. Media was replaced with growth medium and incubated for additional 24 hours.\n(§4) This assay measures the ability of a bradykinin antagonist compound to compete for binding to the human B2 receptor with tritiated bradykinin or tritiated NPC17731, a bradykinin analog which is known to bind the B2 receptor and act as a bradykinin antagonist.\n(§5) H2O.2 cells were grown to confluency in Ham's F12 media containing 10% FBS and 500 μg/ml Geneticin. Growth media was aspirated and the monolayer washed once with Dulbecco's PBS without Ca^++ and Mg^++. Cells were scraped in Dulbecco's PBS and centrifuged at 2,000×g for 10 minutes. Pellets were resuspended in 25 mM TES, 1 mM 1,10-phenanthroline pH 6.8 buffer and homogenized using a Ploytron at setting 5 for 10 seconds. An aliquot was taken for a protein determination using a BioRad protein assay kit. Membranes were centrifuged at 48,000×g for 10 minutes at 4° C. Pellets were resuspended in the TES buffer with 0.1% BSA and 0.014% bacitracin. 0.5 ml aliquots were frozen in liquid N2 and stored at -80° C. for up to 2 weeks.\n(§6) Membranes from H2O.2 cells previously prepared were thawed at 37° C. and diluted in 25 mM TES, […] 1,10-phenanthroline pH 6.8 containing BSA and bactiracin. […] Non-specific binding was determined with 1 μM bradykinin. The tubes were incubated 90 minutes at 25° C. and the assay was terminated by rapid vacuum filtration onto Whatman GF/B filters presoaked with 0.2% PEI for 3 hours followed by 2×3 ml aliquots of ice-cold 50 mM Tris, pH 7.4. Radioactivity was counted with a Beckman scintillation counter."}, "[2]": {"target": "T2, human bradykinin B2 receptor", "test": "Radioligand binding, H2O.2 cell membranes, 3H-NPC17731", "conditions": "Table 2; 3H-NPC17731; read-out: Radioligand Binding, Ki Human 3H17731", "procedure": "as §1, §2, §3, §4, §5, §6"}}, "data": [{"smiles": "N=C(N)NCCC[C@@H](N)C(=O)N[C@@H](CCCNC(=N)N)C(=O)N1CCC2(CC1)C(=O)N(CC(=O)N1CCc3c(n(CC(=O)N[C@@H](CCCNC(=N)N)C(=O)O)c4ccccc34)C1)CN2c1ccccc1", "note": "[Compound 2]", "values": [{"measurement": "Ki", "setting": "human B2 receptor", "result": 10.4, "unit": "µM"}, {"measurement": "Ki", "setting": "[1]", "result": 1.8, "unit": "µM"}, {"measurement": "Ki", "setting": "[2]", "result": 0.094, "unit": "µM"}]}]}
